The text below walks through data of patent EP0403963A2, “Anthracycline derivatives, process for their preparation and their use as medicaments” (priority 1989, dated 1990).

Converted amounts (≈) assume the structure as drawn. Like-named read-outs stand apart in the source and are kept apart here.

One series relates to L1210 Leukämiezellen. Kind of series: Proliferation test (MTT), continuous incubation. In kind it is cell-based, Maus. To be noted: for IC50: Mus musculus, read-out: Zytotoxizität (Dauerinkubation) IC50. As for the experimental part: Kontrollen bestehen aus Zellen, die lediglich mit frischem Medium inkubiert werden. Alle Bestimmungen werden als 4-fache Bestimmung durchgeführt. Nach 65 Stunden werden 50 ul MTT (3-(4,5-Dimethylthiazol-2-yl)-2,5-diphenyl-tetrazoliumbromid, 2,5 mg/mi in PBS) zugegeben. MTT wird durch lebende Zellen zu einem […], unlöslichen Formazan-Farbstoff reduziert. Nach einer weiteren 7-stündigen Inkubation wird das überstehende Medium vorsichtig abgesaugt. Der Formazan-Farbstoff wird durch Zugabe von jeweils 100 ul DMSO in die Vertiefungen der Mikrotiterplatte und vorsichtiges Schütteln gelöst. Die Extinktion der jeweiligen Lösung wird mit Hilfe eines Multiscan Photometers 340 CC, Fa. Flow, bei 492 nm gemessen.

Series [1] is described as follows: Qualitative solubility of the isolated substance. Format: physicochemical. The settings on record: solvents: Methanol, Ethylacetat, Chloroform, Wasser, Hexan.
Series [2] can be described thus: Acute toxicity, intravenous injection. To be noted: mouse, in vivo, iv; i.v. on day 0, 3 and 6; survivors counted on day 20; 2 mice per dose; read-out: akute Toxizität LD50. In kind it is in vivo, Mäusen. On the procedure: (§1) Zur Ermittlung der akuten Toxizität wurden BDFi-Mäusen am Tag 0, Tag 3 und Tag 6 unterschiedliche Dosen der Testsubstanz, gelöst in 0,4 ml physiologischer Kochsalzlösung, intravenös injiziert. Kontrollgruppen erhielten lediglich 0,4 ml physiologischer Kochsalzlösung. Pro Konzentration der Testsubstanz wurden 2 Mäuse verwendet. Am Tag 20 wurde die Zahl der überlebenden Mäuse und daraus die LD50 ermittelt. Die Toxizität der hier beschriebenen Verbindungen im Vergleich zu Adriamycin ist in Tabelle 1 zusammengefaßt.

Another series has as its system BDFi-Mäusen. Kind of series: Acute toxicity, intravenous injection. The settings on record: i.v. on day 0, 3 and 6; survivors counted on day 20; 2 mice per dose; 28800 min. In kind it is in vivo. As for the experimental part: as §1
[3] abbreviates: L1210 cells, 72 h incubation, MTT readout at 492 nm.

What is called IC50 is the concentration that inhibits the measured activity by half. Broadly, the LD50 is the dose expected to kill half of the subjects tested. Take `CC[C@@]1(O[C@H]2C[C@H](N(C)C)[C@H](O)[C@H](C)O2)CCc2c(O)c3c(c(O)c2[C@H]1O[C@H]1C[C@H](N(C)C)[C@H](O)[C@H](C)O1)C(=O)c1cccc(O)c1C3=O` [9-0,10-0-Bis (α-L-rhodosaminyl)-γ-rhodomycinon]: the IC50 in the series with L1210 Leukämiezellen (setting [3]) turned out to be 0.35 µg/mL (≈ 0.511 µM). The Löslichkeit result in series [1] was “leicht löslich in Methanol, Ethylacetat, Chloroform, unlöslich in Wasser und Hexan”. The LD50 at 480 h in series [2] is 25 to 50 mg/kg.

Turning to `COc1cccc2c1C(=O)c1c(O)c3c(c(O)c1C2=O)C[C@@](O)(C(=O)CO)C[C@@H]3O[C@H]1C[C@H](N)[C@H](O)[C@H](C)O1` [Adriamycin, reference compound], in the series on L1210 Leukämiezellen (L1210, 72 h), the half-inhibitory concentration (IC50) was 0.02 to 0.03 µg/mL (≈ 0.0368 to 0.0552 µM). Besides, in series [2], the LD50 at 480 h amounted to 10 mg/kg.

With Cytorhodin Z, in the series on L1210 Leukämiezellen (setting [3]), the “Zytotoxizität (Dauerinkubation) IC50” value was 0,33 µg/ml. In addition, the Löslichkeit result in series [1] is on record as “leicht löslich in Methanol, Ethylacetat, Chloroform, unlöslich in Wasser und Hexan”. Also, the “akute Toxizität LD50” value in the series with BDFi-Mäusen lay within 10 to 25 mg/kg.
